Assay results published in BindingDB's records for patent US20240368133 (Confo Therapeutics, 2024).

target: T1, Type-2 angiotensin II receptor/Low affinity immunoglobulin epsilon Fc receptor (Homo sapiens, UniProt P06734+P50052); assay: Radioligand Assay
T1 sequence (P50052 whole entry): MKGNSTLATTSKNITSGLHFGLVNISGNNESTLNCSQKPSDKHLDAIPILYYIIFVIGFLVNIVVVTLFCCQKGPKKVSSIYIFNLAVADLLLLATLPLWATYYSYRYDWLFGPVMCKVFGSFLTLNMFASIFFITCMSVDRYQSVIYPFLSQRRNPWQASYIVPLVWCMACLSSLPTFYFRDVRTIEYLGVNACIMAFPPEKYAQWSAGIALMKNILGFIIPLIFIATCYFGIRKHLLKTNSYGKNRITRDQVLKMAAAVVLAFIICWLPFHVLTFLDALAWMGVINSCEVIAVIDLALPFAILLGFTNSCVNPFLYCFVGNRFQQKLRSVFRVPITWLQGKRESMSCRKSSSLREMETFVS
T1 sequence (P06734 whole entry): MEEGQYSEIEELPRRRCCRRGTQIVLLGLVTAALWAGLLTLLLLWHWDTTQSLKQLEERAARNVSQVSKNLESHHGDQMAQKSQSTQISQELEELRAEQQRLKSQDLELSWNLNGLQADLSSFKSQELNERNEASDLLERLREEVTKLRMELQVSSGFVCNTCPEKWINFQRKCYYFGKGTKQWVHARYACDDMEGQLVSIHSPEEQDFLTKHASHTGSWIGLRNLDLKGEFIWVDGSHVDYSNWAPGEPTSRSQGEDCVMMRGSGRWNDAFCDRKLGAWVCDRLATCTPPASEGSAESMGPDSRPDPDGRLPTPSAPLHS
Protocol: All synthesized ligands were evaluated in a radioligand assay by displacing 125I-[Sar1, Ile8]-Angiotensin II (Perkin Elmer, NEX248050UC) from human AT2R fused to Cb23 or human/rodent/cynomolgus/minipig/dog WT AT2R in HEK-293 cells membrane preparations, using C21 (Vicore Pharma) and Angiotensin II (endogenous ligand) as reference. The affinity was determined using an eight-point dose-response curve, each point performed in duplicates. The compounds were also evaluated in a counterscreen binding assay for displacement of 125I-[Sar1, Ile8]-Angiotensin II binding to human AT1R in HEK-293 cell membranes. For AT1R, the percent displacement was determined at 1 μM and […] or using an eight-point dose-response curve, each point performed in duplicates with Candesartan and Losartan used as reference.For the AT2R/AT1R binding assays, cell membranes, expressing AT2R_Cb23, AT2R or AT1R, were incubated with 0.05 nM 125I-[Sarl, Ile8]-Ang II. The ligand competition assay was performed in a total volume of 100 μL assay buffer (50 mM Tris, 5 mM MgCl2, 1 mM EDTA, 0.1% BSA, pH 7.4), at concentrations ranging from 1 μM to 10 μM. For each experiment, each ligand concentration was tested in duplicate. Non-specific binding (NSB) was determined by the inclusion of 10 μM unlabeled [Sarl]-Ang II (Sigma Aldrich). The reaction was initiated by the addition of radioligand, after which the plates were incubated at 25° C. for one hour. The reaction was terminated by rapid filtration using a vacuum harvester, applying six washes with 100 μL of ice-cold wash buffer (50 mM Tris.HCl, pH 7.4). The filter plates GF/C (Perkin Elmer) were pre-soaked in 0.5% PEI. The residual amount of radioactivity was determined via liquid scintillation counting. IC50 values, representing the concentration at which each ligand displaced 50% of 125I-[Sarl, Ile8]-Ang II, were calculated using GraphPad Prism 7.02 by applying a Non-linear regression equation (variable slope, four parameters) on the data.

IC50 [µM] | Structure (SMILES)
9.97 | CCc1nc2ccc(NC(=O)c3ccccc3)cc2c(=O)n1CC1CCN(c2ccccc2-c2nn[nH]n2)CC1 [US20240368133, Compound A-245]
3.36 | CCCCNC(=O)NS(=O)(=O)c1ccc(C(F)(F)F)cc1N1CCN(Cc2nc3ccccc3n2C)CC1 [US20240368133, Compound A-10]
1.68 | c1ccc2sc(CN3CCN(c4cc(NCC5CC5)ccc4-c4nn[nH]n4)CC3)nc2c1 [US20240368133, Compound A-62]
18.5 | CC(C)Cc1ccc(-c2nn[nH]n2)c(N2CCN(Cc3nc4ncccc4o3)CC2)c1 [US20240368133, Compound A-71]
